For 37 compounds, IC50 results are on record in patent US10793522B2, “Sulfonamides as inhibitors of the uptake of extracellular citrate” (Boehringer Ingelheim International GmbH, priority 2016, dated 2020).

Test [1] deals with T1, hSLC13A5 (Homo sapiens, UniProt Q86YT5). In words: HepG2/14C-citrate uptake assay. Details: HepG2 cells endogenously express hSLC13A5 transporter which is responsible for the uptake of citrate into these cells; endogenous in cells; host or cells: HepG2. The following applies: HepG2 cells endogenously expressing hSLC13A5; Cytostar-T; 14C-citrate ~1.8 μM; incubation over night. It is filed as cell-based. From the text: (4) HepG2/^14C-Citrate Uptake Assay
T1 sequence (Q86YT5 whole entry): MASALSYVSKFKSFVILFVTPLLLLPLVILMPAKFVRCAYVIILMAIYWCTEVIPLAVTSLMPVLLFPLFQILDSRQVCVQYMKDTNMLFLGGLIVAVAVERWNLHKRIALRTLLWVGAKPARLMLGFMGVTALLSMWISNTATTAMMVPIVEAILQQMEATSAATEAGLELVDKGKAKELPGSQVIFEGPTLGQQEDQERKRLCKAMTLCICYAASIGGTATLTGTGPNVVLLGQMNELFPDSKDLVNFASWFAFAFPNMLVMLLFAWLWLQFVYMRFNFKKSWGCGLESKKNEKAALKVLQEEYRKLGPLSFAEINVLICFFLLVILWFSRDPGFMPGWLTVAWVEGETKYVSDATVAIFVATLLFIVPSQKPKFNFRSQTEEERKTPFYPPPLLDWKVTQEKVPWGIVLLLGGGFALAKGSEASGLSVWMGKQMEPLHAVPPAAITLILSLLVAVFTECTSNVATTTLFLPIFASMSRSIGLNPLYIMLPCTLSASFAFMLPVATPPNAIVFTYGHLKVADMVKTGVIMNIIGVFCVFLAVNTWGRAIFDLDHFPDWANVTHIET
HepG2 cells endogenously expressing hSLC13A5 were obtained from the Wistar Institute (Knowles et al., Science 1980, 209, 497-499).
HepG2 cells endogenously express hSLC13A5 transporter which is responsible for the uptake of citrate into these cells. […] The uptake of ^14C-citrate into HepG2 cells is monitored using the Cytostar-T assay. This assay format is based on the imported radioactive citrate brought into proximity with the scintillant contained within the base of the plate by virtue of the biological processes within the cells. The radioactive decay is converted to a light signal based on the integration of the scintillation matrix into the assay plate.
(§1) Method: ^14C-Citrate Uptake Assay
Starting from 10 mM stock solutions in 100% DMSO, compounds are diluted in pure DMSO using the appropriate dilution steps. Prior to the uptake assay, 400 μL assay medium+4.8 μL compound solution (or pure DMSO for non-inhibited control wells) are mixed (final DMSO concentration in the assay: 1% (v/v)) ^14C-citrate working solution (volumes required per 96-well):
The HepG2 cells are cultivated in cell culture medium (EMEM+10% fetal calf serum+1×NEAA and 10 mM L-Glutamin) For the assay, the medium of the confluent cultures is discarded and the cells are washed with DPBS w/o Mg^2+ w/o Ca^2+. The cells are detached by the addition of 1.0 mL 2× Trypsin in DPBS w/o Mg^2+ w/o Ca^2+ with 7.5 mM EDTA per 75 cm^2 culture flask for up to 3 minutes at 37° C. and resuspended in 10 mL cell culture medium. Following cell counting, 100,000 cells/well are seeded in a volume of 200 μL into Cytostar-T Scintillating 96-well microplates. After overnight incubation in a humid cell culture incubator at 37° C., 5% CO2, the cell culture medium is carefully aspirated and the cells are incubated with 200 μL prewarmed (37° C.) assay medium (50% DMEM+50% Ham's F-12+15 mM HEPES (pH 7.4) (medium contains 15.5 m M D(+)-glucose) per well for at least 1 h prior to the experiment.
Immediately prior to uptake assay, the assay medium is carefully removed and 100 μL test compound dilution is added to each well (n=3).
Following a 20 min incubation at 37° C. in the cell culture incubator, 20 μL of ^14C-citrate working solution is added to each well (final volume per well: 120 μL; final ^14C-citrate concentration ˜1.8 μM/well)).
After incubation over night at 37° C. in the cell culture incubator, the plates are sealed on the top using a transparent plastic foil and on the bottom using a white plastic foil. Following the sealing, the plate is placed into the TopCount NXT HTS and the signal is recorded.
(§2) The IC50 values of the compounds are calculated in IDBS XLfit by sigmoidal dose-response (variable slope).

In test [2] the target is T1, hSLC13A5. The experiment in a line: Recombinant hSLC13A5/14C-citrate uptake assay. It is filed as cell-based. The following applies: HEK293 Flp-In cells over-expressing hSLC13A5; WGA-PVT SPA beads; 14C-citrate approx. 2 μM; 4 h.
Description: (5) Recombinant hSLC13A5/^14C-Citrate Uptake Assay
The human embryonic kidney 293 (HEK 293)-Flp-In cells (293Flp-In-hSLC13A5) over-expressing hSLC13A5 transporter were cloned: The originating plasmid pcDNA3.1-hSLC13A5 containing hSLC13A5 was synthesized at GeneArt. The cDNA for hSLC13A5 was taken from this plasmid by means of PCR amplification using primers with added HindIII (N-terminal) and XhoI (C-terminal) restriction sites and sub-cloned in frame into pcDNA5/FRT from Invitrogen using the respective restriction enzymes. HEK293 Flp-In cells from Invitrogen were stably co-transfected using the pcDNA/FRT-hSLC13A5 plasmid as well as the pOG44 plasmid.
HEK 293-Flp-In cells are used that stably over-express hSLC13A5 transporter which is responsible for the uptake of citrate into these cells.
The uptake of ^14C-citrate into the 293Flp-In-hSLC13A5 cells is monitored using the WGA-PVT SPA (wheat germ agglutinin-polyvinyltoluene scintillation proximity assay) beads that bind to the 293Flp-In cells due to their WGA-PVT surface. This assay format is based on the imported radioactive citrate brought into proximity with the SPA beads by virtue of the biological processes within the cells. The radioactive decay is converted into a light signal that can be measured using e.g. the TopCount plate reader.
as §1
Test Compound Dilutions (2Fold-Concentrated):
Starting from 10 mM stock solutions in 100% DMSO, compounds are diluted in pure DMSO using the appropriate dilution steps.
Prior to the uptake assay, 200 μL assay medium (lx HBSS (with Ca^2+ and Mg^2+, w/o Phenolred), contains 5.56 mM D(+)-Glucose)+19.44 mM D(+)-Glucose (final concentration of D(+)-Glucose is 25 mM))+4.8 μL compound solution (or pure DMSO for non-inhibited control wells) are mixed (final DMSO concentration in the assay: 1% (v/v)).
After preparing the 2fold-concentrated test compound dilutions, 50 μL are pipetted to each well of white OptiPlates-96 and incubated at 37° C. in an incubator.
^14C-Citrate Working Solution (Volumes Required Per 96-Well):
The 293Flp-In-hSLC13A5 cells are cultivated in cell culture medium (DMEM+10% fetal calf serum+100 μg/mL Hygromycin B). The medium of the confluent cultures is discarded and the cells are washed with DPBS (w/o Mg^2+ w/o Ca^2+). The cells are detached by the addition of 2.0 mL Accumax per 75 cm^2 culture flask for up to 3 minutes at 37° C. and resuspended in 10 mL assay medium. After cell counting, 50,000 cells/well are administered in a volume of 50 μL into the white OptiPlates-96 containing the respective test compound concentrations. Following a 20 min incubation at 37° C. in the cell culture incubator, 20 μL of ^14C-citrate working solution is added to each well (final volume per well: 120 μL; final ^14C-citrate concentration: approx. 2 μM/well).
After incubation for 4 h at 37° C. in a humid cell culture incubator and the addition of 30 μL of WGA-PVT SPA beads to each well (0.25 mg/well), the plates are sealed on the top using a transparent plastic foil. Incubate the plates for 1 h by room temperature and gentle shaking.
After incubation, the plate is placed into the TopCount NXT HTS and the signal is recorded.
The performance of the test compounds is calculated as follows:
Wells containing cells incubated with 1% DMSO only deliver values for the non-inhibited ^14C-citrate uptake into 293Flp-In-hSLC13A5 cells (100% CTL). Wells containing cells which have received 30 mM non-labelled potassium citrate solution in addition to the ^14C-citrate working solution deliver values for the background (0% CTL).
as §2

The structures appear in SMILES notation.

As usually defined, the IC50 is the concentration needed to halve the response being measured. On to `Cc1cc(C)cc(S(=O)(=O)N2CCC(C(=O)NCc3nc(C)cs3)CC2)c1` [(I-41)], for which the IC50 in test [1] was found to be 155 nM; in test [2], 438 nM.

With `O=C(NCc1ccc(F)cc1)C1CCN(S(=O)(=O)c2cc(Br)cc(Br)c2)CC1` [(I-40)], the IC50 in test [1] is 17 nM; in test [2], 26 nM.

In test [1], `COc1ccccc1CNC(=O)C1CCN(S(=O)(=O)c2cc(Br)cc(Br)c2)CC1` [(I-34)] displayed an IC50 of 27 nM.

Turning to `Cc1csc(CNC(=O)C2CCN(S(=O)(=O)c3cc(Br)cc(Br)c3)CC2)n1` [(I-29)], the half-inhibitory concentration (IC50) in test [1] stood at 43 nM.

In the case of `Cc1cc(C)cc(S(=O)(=O)N2CCC(C(=O)NCc3ncc(C)s3)CC2)c1` [(I-46)], the IC50 in test [1] came out at 202 nM; in test [2], 398 nM.

`Cc1ccc(CNC(=O)C2CCN(S(=O)(=O)c3cc(Cl)cc(Cl)c3)CC2)cc1` [(I-8)] registered a half-inhibitory concentration (IC50) in test [1] of 37 nM.

Compound `Cc1cc(C)cc(S(=O)(=O)N2CCC(C(=O)NCc3ccc(Br)cc3)CC2)c1` [(I-48)] came in with a 50% inhibitory concentration (IC50) in test [1] of 17 nM.

In test [1], `Cc1ccccc1CNC(=O)C1CCN(S(=O)(=O)c2cc(Cl)cc(Cl)c2)CC1` [(I-19)] came in with an IC50 of 72 nM.

On to `O=C(NCc1ccc(Cl)nc1)C1CCN(S(=O)(=O)c2cc(Cl)cc(Cl)c2)CC1` [(I-3)], for which the IC50 in test [1] came out at 471 nM.

With `CCc1ccc(CNC(=O)C2CCN(S(=O)(=O)c3cc(Br)cc(Br)c3)CC2)nc1` [(I-31)], the IC50 in test [1] was determined as 66 nM; in test [2], 41 nM.

`O=C(NCc1cccc(Cl)n1)C1CCN(S(=O)(=O)c2cc(Cl)cc(Cl)c2)CC1` [(I-26)]: the concentration for half-maximal inhibition (IC50) in test [1] worked out at 290 nM; in test [2], 449 nM.

Turning to `COc1cc(Cl)cc(S(=O)(=O)N2CCC(C(=O)NCc3ccc(F)cc3)CC2)c1` [(I-57)], the concentration for half-maximal inhibition (IC50) was determined as 48 nM in test [1] and 167 nM in test [2].

For the compound `CCc1ccc(CNC(=O)C2CCN(S(=O)(=O)c3cc(Cl)cc(Cl)c3)CC2)nc1` [(I-17)], the results for the half-inhibitory concentration (IC50) in test [1] and in test [2] were 130 nM and 138 nM, respectively.

As to `Cc1ccc(CNC(=O)C2CCN(S(=O)(=O)c3cc(Cl)cc(Cl)c3)CC2)cn1` [(I-16)], the 50% inhibitory concentration (IC50) in test [1] stood at 632 nM; in test [2], 675 nM.

In the case of `O=C(NCc1ccc(Cl)cn1)C1CCN(S(=O)(=O)c2cc(Cl)cc(Cl)c2)CC1` [(I-12)], the 50% inhibitory concentration (IC50) is 103 nM in test [1] and 132 nM in test [2].

The compound `O=C(NCc1ccccc1Cl)C1CCN(S(=O)(=O)c2cc(Cl)cc(Cl)c2)CC1` [(I-18)] came in with a 50% inhibitory concentration (IC50) in test [1] of 60 nM.

Take `Cc1cc(Br)cc(S(=O)(=O)N2CCC(C(=O)NCc3cccnc3)CC2)c1` [(I-60)]: the figures for the IC50 in test [1] and in test [2] were 422 nM and 918 nM, respectively.

In turn, `O=C(NCc1ccc(Br)cc1)C1CCN(S(=O)(=O)c2cc(Br)cc(Br)c2)CC1` [(I-39)] returned an IC50 in test [1] of 14 nM.

Turning to `N#Cc1ccc(CNC(=O)C2CCN(S(=O)(=O)c3cc(Cl)cc(Cl)c3)CC2)c(F)c1` [(I-23)], the IC50 in test [1] amounted to 142 nM; in test [2] it was 91 nM.

As for `COc1ncccc1CNC(=O)C1CCN(S(=O)(=O)c2cc(Br)cc(Br)c2)CC1` [(I-33)], the IC50 is 182 nM in test [1] and 275 nM in test [2].

Regarding `COc1ccccc1CNC(=O)C1CCN(S(=O)(=O)c2cc(C)cc(C)c2)CC1` [(I-44)], the IC50 in test [1] came to 132 nM; in test [2], 703 nM.

In turn, `Cc1cc(C)cc(S(=O)(=O)N2CCC(C(=O)NCc3ccc(Cl)cc3)CC2)c1` [(I-45)] had a concentration for half-maximal inhibition (IC50) in test [1] of 25 nM.

In the case of `COc1ccccc1CNC(=O)C1CCN(S(=O)(=O)c2cc(Cl)cc(Cl)c2)CC1` [(I-21)], in test [1], the half-inhibitory concentration (IC50) stood at 65 nM.

With `Cc1cc(C)cc(S(=O)(=O)N2CCC(C(=O)NCc3ccc(C#N)cc3)CC2)c1` [(I-43)], in test [1], the 50% inhibitory concentration (IC50) came to 46 nM.

In test [1], `O=C(NCc1cc(F)ccc1F)C1CCN(S(=O)(=O)c2cc(Cl)cc(Cl)c2)CC1` [(I-24)] gave an IC50 of 83 nM.

In test [1], `O=C(NCc1ccc(Cl)cc1F)C1CCN(S(=O)(=O)c2cc(Cl)cc(Cl)c2)CC1` [(I-25)] had a half-inhibitory concentration (IC50) of 37 nM.

As for `O=C(NCc1ccc(Br)cn1)C1CCN(S(=O)(=O)c2cc(Cl)cc(Cl)c2)CC1` [(I-28)], the half-inhibitory concentration (IC50) worked out at 171 nM in test [1] and 127 nM in test [2].

In test [1], `O=C(NCc1ccccc1F)C1CCN(S(=O)(=O)c2cc(Br)cc(Br)c2)CC1` [(I-38)] had a half-inhibitory concentration (IC50) of 14 nM.

`Cc1cc(C)cc(S(=O)(=O)N2CCC(C(=O)NCc3ccc(F)cc3)CC2)c1` [(I-42)] returned a concentration for half-maximal inhibition (IC50) in test [1] of 35 nM.

Turning to `N#Cc1ccc(CNC(=O)C2CCN(S(=O)(=O)c3cc(Br)cc(Br)c3)CC2)cc1` [(I-32)], the IC50 in test [1] came to 23 nM.

In the case of `O=C(NCc1ccc(Cl)cc1)C1CCN(S(=O)(=O)c2cc(Br)cc(Br)c2)CC1` [(I-30)], half-maximal inhibition in test [1] (IC50) was put at 14 nM.

Take `O=C(NCc1ccc(F)cc1Cl)C1CCN(S(=O)(=O)c2cc(Cl)cc(Cl)c2)CC1` [(I-22)]: in test [1], half-maximal inhibition (IC50) was put at 84 nM.

For the compound `Cc1cc(C)cc(CNC(=O)C2CCN(S(=O)(=O)c3cc(Cl)cc(Cl)c3)CC2)c1` [(I-4)], the midpoint of inhibition in test [1], the IC50, lay at 94 nM.

`O=C(NCc1ccc(Br)cc1)C1CCN(S(=O)(=O)c2cc(Cl)cc(Cl)c2)CC1` [(I-7)]: the 50% inhibitory concentration (IC50) in test [1] came to 30 nM.

Consider `Cc1csc(CNC(=O)C2CCN(S(=O)(=O)c3cc(Cl)cc(Cl)c3)CC2)n1` [(I-14)], for which half-maximal inhibition in test [1] (IC50) required 83 nM.

In test [1], `Cc1cc(C)cc(S(=O)(=O)N2CCC(C(=O)NCc3ccccc3F)CC2)c1` [(I-47)] returned an IC50 of 34 nM.

In test [1], `O=C(NCc1ccccc1Br)C1CCN(S(=O)(=O)c2cc(Cl)cc(Cl)c2)CC1` [(I-6)] came in with an IC50 of 82 nM.
